Experimental data taken from patent US20230174488A1 (priority 2020, published 2023).
pIC50: −log10 of the molar value. Converted amounts (≈) assume the structure as drawn. Where two headings read alike, the source gives them in different places.

Key:
[1] = target: T1, SARS-CoV-2 M^PRO (Severe acute respiratory syndrome coronavirus 2, UniProt P0DTD1); assay: biochemical; type: biochemical; conditions: In vitro potency data; 30 min pre-incubation, 25 nM M^pro, 25 µM substrate; read-out: IC50
[2] = type: in vitro ADME; conditions: human, microsomes
Procedure: (§1) Cold ACN, including 100 ng/ml tolbutamide and 100 ng/ml labetalol as internal standard (IS), was used for the stop solution. Compound or control working solution (10 µl per well) was added to all plates (T0, T5, T10, T20, T30, T60, and NCF60), except the matrix blank. Dispensed microsome solution (80 µl per well) was added to every plate by Apricot and the mixture of microsome solution and compound was incubated at 37° C. for approximately 10 min. After prewarming, a dispensed NADPH regenerating system (10 µl per well) was added to every plate by Apricot to start a reaction. The solution was then incubated at 37° C. Stop solution (300 µl per well, 4° C.) was then added to terminate the reaction. The sampling plates were shaken for approximately 10 minutes. The samples were centrifuged at 4,000 rpm. for 20 min at 4° C. While centrifuging, new 8×96-well plates were loaded with 300 µl HPLC water, and then 100 µl supernatant was transferred and mixed for liquid chromatography-tandem mass spectrometry (LC/MS/MS).

[3] = Microsomal stability, mouse liver microsomes; type: in vitro ADME; conditions: CD-1, mouse
Procedure: as §1

[4] = Caco-2 permeability; type: in vitro ADME; conditions: human, Caco-2, pH 7.4
Procedure: Medium was refreshed every 4 \~5 days until the 21st to 28th day for confluent cell monolayer formation. The transport buffer was HBSS with 10 mM HEPES at pH=7.40±0.05. […] Final DMSO concentration was adjusted to less than 1%. The plate was incubated for 2 h in the CO2 incubator at 37±1° C., with 5% CO2 at saturated humidity without shaking. All the samples were then mixed with acetonitrile containing internal standard and centrifuged at 3200 xg for 10 min. For nadolol and metoprolol, 100 µL supernatant solution was diluted with 300 µL distilled water for LC-MS/MS analysis. For digoxin and test compounds, 100 µL supernatant solution was diluted with 100 µL distilled water for LC-MS/MS analysis. Concentrations of test and control compounds in starting solution, donor solution, and receiver solution were quantified by LC-MS/MS methodologies, using peak area ratio of analyte/internal standard. After transport assay, lucifer yellow rejection assay was applied to determine the Caco-2 cell monolayer integrity. The apparent permeability coefficient Papp (cm/s) was calculated using the equation:
where d/Cr/6t is the cumulative concentration of compound in the receiver chamber as a function of time (µM/s); Vr is the solution volume in the receiver chamber (0.075 mL on the apical side, 0.25 mL on the basolateral side); A is the surface area for the transport, i.e. 0.0804 cm^2 for the area of the monolayer; C0 is the initial concentration in the donor chamber (µM).
The efflux ratio was calculated using the equation:
where Vd is the volume in the donor chambers (0.075 mL on the apical side, 0.25 mL on the basolateral side); Cd and Cr are the final concentrations of the transport compound in donor and receiver chambers, respectively.

[5] = PAMPA permeability assay; type: in vitro ADME
Procedure: 2.6 g KH2PO4 and 18.5 g K3PHO4×3H2O were dissolved in 1000 mL of ultra-pure water, mixed thoroughly. The pH was adjusted to 7.40 ± 0.05, using either 1 M sodium hydroxide or 1 M hydrochloric acid. 0.2 mM working solution was prepared by diluting 10 mM stock solution with DMSO. 10 µM donor solution (5% DMSO) was prepared by diluting 20 µL of working solution with 380 µL PBS. 150 µL of 10 µM donor solutions to each well of the donor plate, whose PVDF membrane was precoated with 5 µL of 1% lecithin/dodecane mixture. Duplicates were prepared. 300 µL of PBS was added to each well of the PTFE acceptor plate. The donor plate and acceptor plate were combined together and incubated for 4 h at room temperature with shaking at 300 rpm. […] Preparation of acceptor sample: the plate was removed from the incubator. 270 µL solution was transferred from each acceptor well and mixed with 130 µL ACN (containing internal standard) as acceptor sample. […] Acceptor samples and donor samples were all analyzed by LC-MS/MS.

[6] = Plasma stability, mice; type: in vitro ADME; conditions: mouse
Procedure: (§2) Propantheline bromide was used as a reference compound in this assay. The pooled frozen plasma was thawed in a water bath at 37° C. prior to experiment. Plasma was centrifuged at 4000 rpm for 5 min and the clots were removed if any. The pH will be adjusted to 7.4 ± 0.1 if required.
(§3) Preparation of compounds: 1 mM intermediate solution was prepared by diluting 10 µL of the stock solution with 90 µL DMSO; 1 mM intermediate of positive control Propantheline was prepared by diluting 10 µL of the stock solution with 90 µL ultrapure water. For test compounds, 100 µM dosing solution was prepared by diluting 10 µL of the intermediate solution (1 mM) with 90 µL DMSO. […] 98 µL of blank plasma was spiked with 2 µL of dosing solution (100 µM) to achieve 2 µM of the final concentration in duplicate and samples were Incubated at 37° C. in a water bath. […] Centrifuged sample plates at 4,000 rpm for 10 min. An aliquot of supernatant (50 µL) was transferred from each well and mixed with 100 µL ultra-pure water. The samples were shaken at 800 rpm for about 10 min before submitting to LC-MS/MS analysis. The % remaining of test compound after incubation in plasma was calculated using following equation:
(§4) where PAR is the peak area ratio of analyte versus internal standard (IS).

[7] = Plasma stability, human; type: in vitro ADME; conditions: pH 7.4
Procedure: as §2, §3, §4

[8] = physchem; conditions: water, kinetic from dmso stock
[9] = in vitro; conditions: mouse
[10] = in vitro; conditions: human
[11] = target: CYP 2C9 (Homo sapiens, UniProt P11712); assay: biochemical
CYP 2C9, sequence (P11712 whole entry): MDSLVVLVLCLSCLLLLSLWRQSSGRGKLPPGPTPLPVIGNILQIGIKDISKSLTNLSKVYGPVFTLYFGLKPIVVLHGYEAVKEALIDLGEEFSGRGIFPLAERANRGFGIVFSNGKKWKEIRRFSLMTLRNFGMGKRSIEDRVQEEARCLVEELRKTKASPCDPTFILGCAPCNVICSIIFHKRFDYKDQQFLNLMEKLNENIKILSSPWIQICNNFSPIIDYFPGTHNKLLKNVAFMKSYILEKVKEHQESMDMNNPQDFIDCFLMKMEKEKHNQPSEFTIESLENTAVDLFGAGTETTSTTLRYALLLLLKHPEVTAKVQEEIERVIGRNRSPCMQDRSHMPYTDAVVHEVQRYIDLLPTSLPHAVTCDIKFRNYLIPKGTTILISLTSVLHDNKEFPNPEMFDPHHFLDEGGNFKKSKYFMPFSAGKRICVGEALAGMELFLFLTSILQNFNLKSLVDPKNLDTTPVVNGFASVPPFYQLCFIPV
Procedure: (§5) The following reagents/reactants were used in the assay: water was purified by ELGA Lab purification systems, buffer solution: PB (100 mM), MgCl2 (33 mM), organic solvents were AR or HPLC grade, CYP substrates: phenacetin (10 µM, 25 µL, 1A2), diclofenac (5 µM, 25 µL, 2C9), S-mephenytoin (30 µM, 75 µL, 2C19), dextromethorphan (5 µM, 12,5, 2D6), and midazolam (2 µM, 10 µL, 3A4), stock solutions were prepared in MeOH (20, 10, 20, 20, and 10 mM, respectively). Positive controls: α-naphthoflavone, sulfaphenazole, (+)-N-3-benzylnirvanol, quinidine, and ketoconazole, final concentration was 3 µM in MeOH (90 µL), stock solutions were prepared in DMSO (3 mM for all the inhibitors). Test compounds were evaluated using five conc. points at the range of 15-5,000 µM. […] Main procedure: working solution (100×) of the test compound and standard inhibitors were prepared, microsomes were pulled out of the -80° C. freezer to thaw on ice, labeled the date and put it back to the freezer immediately after use. Substrates (20 µL) and PB (20 µL) were added to corresponding wells and Blank wells, respectively. […] HLM working solution (158 µL) was added to all wells of the incubation plate. Plate was pre-warmed for about 10 min at 37° C. in a water bath, then NADPH (20 µL) was added to all incubation wells. CYPs were mixed and incubated for 10 min at 37° C. in a water bath. The reaction was terminated at the time point by adding a 400 µL cold stop solution (200 ng/mL tolbutamide and labetalol in ACN). Samples were centrifuged at 4000 rpm for 20 minutes to precipitate protein. Supernatant (200 µL) was transferred to 100 µL HPLC water and shaken for 10 min, then samples were subjected for LC/MS/MS analysis. XL fit was used to plot the percent of vehicle control vs the test compound concentrations, and for non-linear regression analysis of the data. IC50 values were determined using 3- or 4-parameter logistic equations.

[12] = target: T2, CYP 1A2 (Homo sapiens, UniProt P05177); assay: CYP inhibition assay, 1A2
T2 sequence (P05177 1-516): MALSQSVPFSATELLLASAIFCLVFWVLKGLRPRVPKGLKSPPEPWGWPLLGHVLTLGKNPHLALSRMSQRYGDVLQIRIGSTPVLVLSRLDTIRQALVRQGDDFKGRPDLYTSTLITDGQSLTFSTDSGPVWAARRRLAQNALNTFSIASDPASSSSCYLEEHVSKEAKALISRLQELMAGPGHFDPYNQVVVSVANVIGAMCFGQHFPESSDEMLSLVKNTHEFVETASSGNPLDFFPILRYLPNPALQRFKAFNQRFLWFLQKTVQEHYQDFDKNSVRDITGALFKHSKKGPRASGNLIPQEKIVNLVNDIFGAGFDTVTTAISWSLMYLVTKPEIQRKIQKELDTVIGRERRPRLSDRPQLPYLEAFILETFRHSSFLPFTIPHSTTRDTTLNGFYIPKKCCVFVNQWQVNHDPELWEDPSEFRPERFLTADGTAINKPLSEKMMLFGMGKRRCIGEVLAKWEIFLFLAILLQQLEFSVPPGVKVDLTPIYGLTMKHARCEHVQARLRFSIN
Procedure: as §5

[13] = target: CYP 2D6 (Homo sapiens, UniProt P10635); assay: CYP inhibition assay, 2D6
CYP 2D6, sequence (P10635 whole entry): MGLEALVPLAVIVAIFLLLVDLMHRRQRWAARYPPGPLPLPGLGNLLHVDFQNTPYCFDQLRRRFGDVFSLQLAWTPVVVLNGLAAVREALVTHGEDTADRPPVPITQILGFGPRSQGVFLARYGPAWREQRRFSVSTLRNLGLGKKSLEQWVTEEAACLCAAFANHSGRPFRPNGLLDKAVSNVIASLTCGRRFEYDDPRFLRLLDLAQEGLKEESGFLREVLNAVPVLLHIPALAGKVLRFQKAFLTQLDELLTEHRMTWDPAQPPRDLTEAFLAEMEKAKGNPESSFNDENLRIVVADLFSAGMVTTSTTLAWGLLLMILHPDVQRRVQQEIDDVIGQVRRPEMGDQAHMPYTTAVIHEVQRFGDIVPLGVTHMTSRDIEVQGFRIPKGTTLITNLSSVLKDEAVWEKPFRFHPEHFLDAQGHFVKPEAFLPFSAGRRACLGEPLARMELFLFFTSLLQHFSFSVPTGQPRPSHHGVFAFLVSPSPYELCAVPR
Procedure: as §5

[14] = target: CYP 3A4 (Homo sapiens, UniProt P08684); assay: CYP inhibition assay, 3A4
CYP 3A4, sequence (P08684 whole entry): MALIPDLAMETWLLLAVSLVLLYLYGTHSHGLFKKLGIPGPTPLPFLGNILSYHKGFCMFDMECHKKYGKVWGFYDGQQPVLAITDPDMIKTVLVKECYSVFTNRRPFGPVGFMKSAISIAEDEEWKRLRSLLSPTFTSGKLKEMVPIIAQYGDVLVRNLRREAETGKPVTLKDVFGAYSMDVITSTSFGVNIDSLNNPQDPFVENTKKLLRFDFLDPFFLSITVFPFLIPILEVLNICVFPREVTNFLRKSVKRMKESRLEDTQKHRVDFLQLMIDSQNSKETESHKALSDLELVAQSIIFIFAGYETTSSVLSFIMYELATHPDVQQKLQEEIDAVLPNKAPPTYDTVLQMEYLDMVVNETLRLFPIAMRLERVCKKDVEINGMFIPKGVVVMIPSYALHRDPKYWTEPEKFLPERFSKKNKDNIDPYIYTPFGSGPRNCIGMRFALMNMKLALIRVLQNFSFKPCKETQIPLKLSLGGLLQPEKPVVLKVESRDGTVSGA
Procedure: as §5

[15] = target: CYP 2C19 (Homo sapiens, UniProt P33261); assay: CYP inhibition assay, 2C19
CYP 2C19, sequence (P33261 whole entry): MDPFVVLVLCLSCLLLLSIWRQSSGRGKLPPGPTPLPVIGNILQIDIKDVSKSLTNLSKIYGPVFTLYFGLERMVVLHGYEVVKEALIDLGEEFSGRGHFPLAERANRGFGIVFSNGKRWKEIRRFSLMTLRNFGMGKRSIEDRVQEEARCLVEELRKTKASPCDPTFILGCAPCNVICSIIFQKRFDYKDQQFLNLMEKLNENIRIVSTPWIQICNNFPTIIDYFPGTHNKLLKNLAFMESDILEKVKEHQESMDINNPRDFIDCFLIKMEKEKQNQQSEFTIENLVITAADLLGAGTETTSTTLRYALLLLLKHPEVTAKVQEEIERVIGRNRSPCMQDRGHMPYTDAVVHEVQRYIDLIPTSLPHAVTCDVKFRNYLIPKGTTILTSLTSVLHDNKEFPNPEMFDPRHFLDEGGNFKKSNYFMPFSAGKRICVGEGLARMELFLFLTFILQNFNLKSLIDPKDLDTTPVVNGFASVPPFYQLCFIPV
Procedure: as §5

[16] = test system: SARS-CoV-2; assay: In vitro antiviral cell-based assay (live SARS-CoV-2 IFA) in Vero cells; conditions: Severe acute respiratory syndrome coronavirus 2, MOI ~0.0125, 24 hpi
[17] = mouse, plasma
[18] = plasma
[19] = in vitro; conditions: African green monkey
[20] = target: T1, SARS-CoV-2 M^PRO; assay: Crystal structure of ligand bound to SARS-CoV-2 M^pro; conditions: X-ray, complex with SARS-CoV-2 M^pro
[21] = Cytotoxicity (CC50) in Vero cells; conditions: African green monkey

CC(C(=O)NC1CCC(F)(F)CC1)(c1cncnc1)N(C(=O)CCl)c1ccc(-c2ccno2)cc1 (single isomer, unassigned) [INSCoV-601P(1A), 2-(2-Chloro-N-(4-(isoxazol-5-yl)phenyl)acetamido)-N-(4,4-difluorocyclohexyl)-2-(pyrimidin-5-yl)propanamide]
pIC50 [1]: 6.85
microsomal CLint [2]: 66 µL/min/mg
microsomal CLint [3]: 102 µL/min/mg
Papp A→B at 2 h, 2 µM [4]: < 0.48 ×10⁻⁶ cm/s
efflux ratio at 2 h, 2 µM [4]: > 0.489
Papp at 4 h, 10 µM ([5]; pH 7.4): 0.626 ×10⁻⁶ cm/s
half-life at 2 µM ([6]; pH 7.4): 13.1 min
half-life at 2 µM [7]: 16.3 min
solubility kinetic [8]: 142 µM (≈ 71.6 µg/mL)
recovery [9]: 2.8%
recovery [10]: 1.3%
pIC50 [11]: < 4.30
pIC50 [12]: < 4.30
pIC50 [13]: 5.21
pIC50 [14]: 5.44
pIC50 [15]: < 4.30

CC(C(=O)NC1CCC(F)(F)CC1)(c1cnccn1)N(C(=O)CCl)c1ccc(-c2ccns2)cc1 (stereo not drawn) [INSCoV-601N, 2-(2-Chloro-N-(4-(isothiazol-5-yl)phenyl)acetamido)-N-(4,4-difluorocyclohexyl)-2-(pyrazin-2-yl)propanamide]
pIC50 [1]: 6.92
microsomal CLint [2]: 169 µL/min/mg
microsomal CLint [3]: 531 µL/min/mg
Papp A→B at 2 h, 2 µM ([4]; A to B, 2.00 µM, pH 7.40, read-out: Caco-2, Mean Papp,, A to B): < 0.0434 ×10⁻⁶ cm/s
Papp at 4 h, 10 µM ([5]; pH 7.4, pH 7.40, 4 h, read-out: PAMPA, Mean Pe): 15.5 ×10⁻⁶ cm/s
half-life at 2 µM ([6]; pH 7.4): 21.1 min
half-life at 2 µM [7]: 32.6 min
solubility kinetic [8]: < 1.56 µM
recovery [9]: 0.1%
recovery [10]: 0.2%
pIC50 [11]: 5.49
pIC50 [12]: 4.60
pIC50 [13]: 6.15
pIC50 [14]: 6.66
pIC50 [15]: 5.25

O=C(NC1CCC(F)(F)CC1)[C@@H](c1cncnc1)N(C(=O)[C@@H](F)Cl)c1ccc(-c2cncs2)cc1 (single isomer, unassigned) [INSCoV-614(1B), 2-Chloro-N-(2-((4,4-difluorocyclohexyl)amino)-2-oxo-1-(pyrimidin-5-yl)ethyl)-2-fluoro-N-(4-(thiazol-5-yl)phenyl)acetamide]
pIC50 [1]: 7.22
EC50 [16]: 2.23 µM
PAMPA, Mean Pe ([5]; 4 h, 10 µM, pH 7.4): 0.188 ×10⁻⁶ cm/s
Papp at 4 h, 10 µM ([5]; pH 7.4): 0.188 ×10⁻⁶ cm/s
Stability in plasma (in words) [6]: significantly improved stability in plasma
Plasma stability, T½, min, mice ([6]; 2 µM, pH 7.4): >289.1 min
half-life at 2 µM ([6]; pH 7.4): > 289 min
Plasma stability, T½, min, human ([7]; 2 µM): >289.1 min
half-life at 2 µM [7]: > 289 min
PPB, mice, % Bound [17]: 83.78%
PPB, human, % Bound [18]: 70.59%
CC50 at 24 h [19]: > 25 µM
solubility kinetic [8]: 164 µM (≈ 85.9 µg/mL)
pIC50 [11]: 4.81
pIC50 [12]: 4.61
pIC50 [13]: 5.19
pIC50 [14]: 5.84
pIC50 [15]: 5.02

O=C(NC1CCC(F)(F)CC1)[C@@H](c1cnccn1)N(C(=O)CCl)c1ccc(-c2ccns2)cc1 [INSCoV-601I(l)]
pIC50 [1]: 7.30
EC50 [16]: 14.1 µM
Binding mode in crystal structure [20]: covalently bound to Cys145 residue of SARS-CoV-2 M^Pro

Cc1cccc(C)c1OCC(=O)N[C@@H](Cc1ccccc1)[C@@H](O)C[C@H](Cc1ccccc1)NC(=O)[C@H](C(C)C)N1CCCNC1=O [Lopinavir, lopinavir, reference compound]
EC50 [16]: 13.9 µM
CC50 at 24 h [21]: > 50 µM
